Results from PMC11671526, “β-caryophyllene sensitizes hepatocellular carcinoma cells to chemotherapeutics and inhibits cell malignancy through targeting MAPK signaling pathway” (Frontiers in Pharmacology, 2024).

Tested on: HepG2 cells
Assay: RNA-seq transcriptome analysis of differentially expressed genes
Type: cell-based, human
Method: The quality and concentration of RNA were examined by MOPS RNA electrophoresis and Eppendorf BioSpectrometer. The transcriptome analysis was performed by BGI-Wuhan China. The RNA-seq dataset of this study is accessible in the Gene Expression Omnibus (GEO) with an access number of GSE276099. The sequence library for each sample was prepared using the BGISEQ-500 platform with a 50-bp single-end (SE50) format. […]2.2.1) was used to align the clean reads to the reference genome and alignment of the clean reads to the reference genes was carried out using Bowtie2 (v2.4.5) ([Langmead and Salzberg, 2012]; [Kim et al., 2015]). Gene expression levels were calculated by RSEM (v1.3.1) ([Li and Dewey, 2011]). Analysis of differential gene expression was performed using edgeR in the Bioconductor software package ([Robinson et al., 2010]). Using a standard protocol, the RNA samples were also examined by reverse transcription and quantitative polymerase chain reaction (RT-qPCR). In brief, for reverse transcription, total RNA (1 μg) and gDNA wiper Mix were incubated at 42°C for 2 min. The samples were immediately incubated with a master mix containing 10 pmol/μL of poly (dT) primers at 37°C for 15 min and 85°C for 5 s. To detect the expression of specific genes by qPCR analysis, gene-specific primers (shown in Supplementary Table S1) were mixed with the ChamQ Universal SYBER qPCR Master Mix and the reaction was conducted using the Roche Lightcycler 480. The GAPDH value was used to normalize the results of each gene. The RNA-seq data of BCP-treated HepG2 cells were screened for DEGs. Gene symbols were turned into Enterz ID using the org.Hs.eg.db Bio-conductor R package. The cluster profiler (v4.6.2) package was used to perform the Kyoto Encyclopedia of Genes and Genomes (KEGG) and Gene Ontology (GO) enrichment analyses ([Wu et al., 2021]). Following the Transcript per million (TPM) data of the dataset, the line chart, and heatmap were plotted using ggplot2 and pheatmap R packages, respectively.

[1] = HepG2, 150 µM BCP 24 h vs ethanol, RNA-seq DEG
[2] = HepG2, 150 µM BCP 24 h vs ethanol, FDR ≤ 0.05, 1.5-fold change

## C=C1CC/C=C(\C)CC[C@@H]2[C@@H]1CC2(C)C [BCP, β-caryophyllene]
BCP vs control HepG2, RNA-seq
  ODAD2 change: Up
  ODAD2 logFC: 0.6018
  PADI1 change: Down
  PADI1 logFC: -0.911
  PAN2 change: Up
  PAN2 logFC: 0.6394
  PAPLN change: Up
  PAPLN logFC: 0.648
  PARP10 change: Up
  PARP10 logFC: 0.961
  PDZK1IP1 change: Up
  PDZK1IP1 logFC: 0.6396
  PERM1 change: Up
  PERM1 logFC: 0.9379
  PGF change: Down
  PGF logFC: -1.184
  PGGHG change: Up
  PGGHG logFC: 0.7209
  PID1 change: Down
  PID1 logFC: -0.6654
  PLCD4 change: Down
  PLCD4 logFC: -1.595
  PLCH1 change: Up
  PLCH1 logFC: 1.418
  PLEKHF1 change: Up
  PLEKHF1 logFC: 0.8594
  PLEKHN1 change: Up
  PLEKHN1 logFC: 0.6105
  POU2F3 change: Down
  POU2F3 logFC: -1.5108
  PRDM12 change: Down
  PRDM12 logFC: -1.2196
  PRIMPOL change: Up
  PRIMPOL logFC: 0.639
  PROB1 change: Down
  PROB1 logFC: -0.6611
  PRSS56 change: Up
  PRSS56 logFC: 0.9346
  PTP4A3 change: Up
  PTP4A3 logFC: 0.9798
  PTPRR change: Up
  PTPRR logFC: 1.308
  RAET1E change: Down
  RAET1E logFC: -0.794
  RAET1L change: Down
  RAET1L logFC: -0.9044
  RASD2 change: Down
  RASD2 logFC: -0.5906
  RASL11A change: Down
  RASL11A logFC: -0.8207
  RHBDL3 change: Down
  RHBDL3 logFC: -0.6105
  S1PR1 change: Down
  S1PR1 logFC: -1.034
  SH2D5 change: Up
  SH2D5 logFC: 0.5827
  SHC3 change: Down
  SHC3 logFC: -0.7485
  SLC4A11 change: Down
  SLC4A11 logFC: -0.655
  SLC6A12 change: Down
  SLC6A12 logFC: -3.144
  SLC6A16 change: Down
  SLC6A16 logFC: -0.7923
  SLC12A3 change: Down
  SLC12A3 logFC: -0.7354
  SLC25A41 change: Down
  SLC25A41 logFC: -0.9215
  SMC1B change: Up
  SMC1B logFC: 1.162
  SMPDL3A change: Down
  SMPDL3A logFC: -0.7314
  SORBS1 change: Up
  SORBS1 logFC: 0.6679
  SP6 change: Down
  SP6 logFC: -0.8849
  ST3GAL5 change: Down
  ST3GAL5 logFC: -0.6552
  STAC change: Down
  STAC logFC: -0.9497
  STXBP6 change: Down
  STXBP6 logFC: -0.6612
  SYTL4 change: Down
  SYTL4 logFC: -1.384
  TCF7 change: Up
  TCF7 logFC: 0.7392
  TESPA1 change: Down
  TESPA1 logFC: -0.7534
  TEX9 change: Up
  TEX9 logFC: 0.7307
  TGFA change: Down
  TGFA logFC: -0.6404
  THRB change: Down
  THRB logFC: -0.6974
  TIAF1 change: Down
  TIAF1 logFC: -0.9875
  TLN2 change: Up
  TLN2 logFC: 0.6813
  TMEM17 change: Up
  TMEM17 logFC: 0.6031
  TMEM121 change: Down
  TMEM121 logFC: -0.7343
  TMEM158 change: Down
  TMEM158 logFC: -0.7403
  TMEM213 change: Down
  TMEM213 logFC: -1.017
  TMIE change: Up
  TMIE logFC: 1.064
  TMPPE change: Down
  TMPPE logFC: -0.812
  TNFRSF14 change: Up
  TNFRSF14 logFC: 1.214
  TOX change: Up
  TOX logFC: 0.9011
  TRABD2B change: Up
  TRABD2B logFC: 0.6053
  TSHZ2 change: Up
  TSHZ2 logFC: 0.586
  TSPAN18 change: Up
  TSPAN18 logFC: 0.6055
  TTC21A change: Up
  TTC21A logFC: 1.034
  TTC30B change: Up
  TTC30B logFC: 1.0891
  TYW1B change: Down
  TYW1B logFC: -0.7579
  VEPH1 change: Up
  VEPH1 logFC: 0.6882
  WASF3 change: Down
  WASF3 logFC: -1.027
  WDR86 change: Down
  WDR86 logFC: -0.8076
  ZNF165 change: Up
  ZNF165 logFC: 0.918
  ZNF284 change: Down
  ZNF284 logFC: -0.7229
  ZNF341 change: Down
  ZNF341 logFC: -0.6282
[1]
  ADORA2A expression change (BCP_treatment): Down
  ADRA2C expression change (BCP_treatment): Down
  ALYREF expression change (BCP_treatment): Down
  ANK1 expression change (BCP_treatment): Down
  ANKFN1 expression change (BCP_treatment): Down
  ARTN expression change (BCP_treatment): markedly downregulated and Down
  B3GNT4 expression change (BCP_treatment): Down
  BICDL1 expression change (BCP_treatment): Down
  BOC expression change (BCP_treatment): Down
  BOLA2B expression change (BCP_treatment): Down
  CA5B expression change (BCP_treatment): Down
  CACNA1E expression change (BCP_treatment): markedly downregulated and Down
  CAMK2N2 expression change (BCP_treatment): Down
  CCDC86 expression change (BCP_treatment): Down
  CCL26 expression change (BCP_treatment): Down
  CHST6 expression change (BCP_treatment): Down
  CLIP2 expression change (BCP_treatment): Down
  CYP26B1 expression change (BCP_treatment): Down
  DPF1 expression change (BCP_treatment): Down
  EN2 expression change (BCP_treatment): Down
  FAM222A expression change (BCP_treatment): Down
  FBXL22 expression change (BCP_treatment): Down
  FBXO27 expression change (BCP_treatment): Down
  FBXO44 expression change (BCP_treatment): Down
  FRMD3 expression change (BCP_treatment): Down
  FUT3 expression change (BCP_treatment): Down
  GBP2 expression change (BCP_treatment): Down
  GNAZ expression change (BCP_treatment): Down
  H1-2 expression change (BCP_treatment): Down
  H2BC11 expression change (BCP_treatment): Down
  H2BC12 expression change (BCP_treatment): Down
  H3C6 expression change (BCP_treatment): Down
  H4C8 expression change (BCP_treatment): Down
  HPDL expression change (BCP_treatment): Down
  ISYNA1 expression change (BCP_treatment): Down
  KCNH3 expression change (BCP_treatment): Down
  KHDC1 expression change (BCP_treatment): Down
  LYSMD4 expression change (BCP_treatment): Down
  MAFA expression change (BCP_treatment): Down
  MAGEB17 expression change (BCP_treatment): Down
  MAP1A expression change (BCP_treatment): Down
  MNX1 expression change (BCP_treatment): Down
  MYB expression change (BCP_treatment): Down
  MYEOV expression change (BCP_treatment): Down
  NES expression change (BCP_treatment): Down
  NR6A1 expression change (BCP_treatment): Down
  PAQR5 expression change (BCP_treatment): Down
  PGF expression change (BCP_treatment): markedly downregulated and Down
  PI3 expression change (BCP_treatment): Down
  RAPGEF3 expression change (BCP_treatment): Down
  RASD2 expression change (BCP_treatment): Down
  RHBDL3 expression change (BCP_treatment): Down
  S100A3 expression change (BCP_treatment): Down
  SCIN expression change (BCP_treatment): Down
  SHC3 expression change (BCP_treatment): Down
  SLC4A11 expression change (BCP_treatment): Down
  SP6 expression change (BCP_treatment): Down
  STXBP6 expression change (BCP_treatment): Down
  SYN3 expression change (BCP_treatment): Down
  TMEM120B expression change (BCP_treatment): Down
  TMEM158 expression change (BCP_treatment): Down
  TNFSF15 expression change (BCP_treatment): Down
  TRNP1 expression change (BCP_treatment): Down
  VAMP1 expression change (BCP_treatment): Down
  ZBED6CL expression change (BCP_treatment): Down
  ZNF284 expression change (BCP_treatment): Down
  ZNF341 expression change (BCP_treatment): Down
[2]
  number of downregulated genes: 245
  number of upregulated genes: 188
  total number of DEGs: 433
Gene ABLIM2, BCP vs control HepG2, RNA-seq
  logFC ABLIM2: 1.01
Gene ABLIM2, DEG direction, BCP vs control HepG2
  change ABLIM2: Up
Gene ACKR3, BCP vs control HepG2, RNA-seq
  logFC ACKR3: 0.6675
Gene ACKR3, DEG direction, BCP vs control HepG2
  change ACKR3: Up
Gene ACYP2, BCP vs control HepG2, RNA-seq
  logFC ACYP2: -0.6093
Gene ACYP2, DEG direction, BCP vs control HepG2
  change ACYP2: Down
Gene ADGRD1, BCP vs control HepG2, RNA-seq
  logFC ADGRD1: 0.8304
Gene ADGRD1, DEG direction, BCP vs control HepG2
  change ADGRD1: Up
Gene ADGRG6, BCP vs control HepG2, RNA-seq
  logFC ADGRG6: 0.7321
Gene ADGRG6, DEG direction, BCP vs control HepG2
  change ADGRG6: Up
Gene AKR1B1, BCP vs control HepG2, RNA-seq
  logFC AKR1B1: -0.8932
Gene AKR1B1, DEG direction, BCP vs control HepG2
  change AKR1B1: Down
Gene ALDH1L2, BCP vs control HepG2, RNA-seq
  logFC ALDH1L2: 0.8642
Gene ALDH1L2, DEG direction, BCP vs control HepG2
  change ALDH1L2: Up
Gene ALPI, BCP vs control HepG2, RNA-seq
  logFC ALPI: 0.9718
Gene ALPI, DEG direction, BCP vs control HepG2
  change ALPI: Up
Gene ALPL, BCP vs control HepG2, RNA-seq
  logFC ALPL: 1.081
Gene ALPL, DEG direction, BCP vs control HepG2
  change ALPL: Up
Gene ALYREF, BCP vs control HepG2, RNA-seq
  logFC ALYREF: -0.7733
Gene ALYREF, DEG direction, BCP vs control HepG2
  change ALYREF: Down
Gene AMPD2, BCP vs control HepG2, RNA-seq
  logFC AMPD2: -0.8008
Gene AMPD2, DEG direction, BCP vs control HepG2
  change AMPD2: Down
Gene ANKFN1, BCP vs control HepG2, RNA-seq
  logFC ANKFN1: -1.752
Gene ANKFN1, DEG direction, BCP vs control HepG2
  change ANKFN1: Down
Gene ANO2, BCP vs control HepG2, RNA-seq
  logFC ANO2: 1.524
Gene ANO2, DEG direction, BCP vs control HepG2
  change ANO2: Up
